In US9624242B2, “11-2(2-pyrrolidin-1-yl-ethoxy)-14,19-dioxa-5,7,26-triaza-tetracyclo[19.3.1.1(2,6).1(8,12)]heptacosa-1(25),2(26),3,5,8,10,12(27),16,21,23-decaene citrate salt” (CTI BIOPHARMA CORP., priority 2008, dated 2017):
Structures can show the parent of a compound that is named as a salt.

Experiments:
Assay type in all cases: physicochemical
[1] = Thermal gravimetric analysis (TGA)
Description: The samples of both hydrochloride (comparative) and citrate salts were subjected to thermal gravimetric analysis and differential scanning calorimetry under the following conditions. DSC data were collected on a TA Instruments Q2000 equipped with a 50 position auto-sampler. The instrument was calibrated for energy and temperature calibration using certified indium. Typically 0.5-3 mg of each sample, in a pin-holed aluminium pan, was heated at 10° C.·min^−1 from 25° C. to 270° C.
TGA data were collected on a TA Instruments Q500 TGA, equipped with a 16 position auto-sampler. The instrument was temperature calibrated using certified Alumel. Typically 5-30 mg of each sample was loaded onto a pre-tared platinum crucible and aluminium DSC pan, and was heated at 10° C.·min^−1 from ambient temperature to 300° C. A nitrogen purge at 60 ml·min^−1 was maintained over the sample. The instrument control software was Thermal Advantage v4.6.6 and the data were analysed using Universal Analysis v4.3A. Alternatively, TGA data were collected on a Mettler TGA/SDTA 851e equipped with a 34 position auto-sampler. The instrument was temperature calibrated using certified indium. Typically 5-30 mg to of each sample was loaded onto a pre-weighed aluminium crucible and was heated at 10° C.·min^−1 from ambient temperature to 300° C. A nitrogen purge at 50 ml·min^−1 was maintained over the sample. The instrument control and data analysis software was STARe v9.01.

[2] = Variable temperature X-ray diffraction
Description: Samples run under non-ambient conditions were mounted on a silicon wafer with heat-conducting compound. The sample was then heated to the appropriate temperature at ca. 10° C.·min^−1 and subsequently held isothermally for ca 2 minutes before data collection was initiated.
In order to probe the stability of the samples of the citrate salts variable temperature X-ray diffraction was carried out. Thus, the salts were scanned under X-ray diffraction conditions at a series of temperatures and the characteristic peaks determined.

[3] = Gravimetric Vapour Sorption (GVS) with post-GVS XRPD
[4] = Solid form analysis of salt batches (XRPD, DSC, TGA, GVS); settings: citrate salt batches
Excerpt: Initial studies into compound I involved analysis of the hydrochloride salt. It was found as summarised in Table 1 below, that the initially prepared hydrochloride salt produces an inconsistent solid form with significant variability in the DSC, TGA, GVS and XRPD pattern (see FIGS. 1 to 16).
The samples of both hydrochloride (comparative) and citrate salts were subjected to X-ray diffraction to determine the characteristic X-ray diffraction pattern. The conditions used were as follows: X-Ray Powder Diffraction patterns were collected on a Siemens D5000 diffractometer using Cu Kα radiation (40 kV, 40 mA), θ-θ goniometer, divergence of V20 and receiving slits, a graphite secondary monochromator and a scintillation counter. The instrument is performance checked using a certified Corundum standard (NIST 1976).
Samples run under ambient conditions were prepared as flat plate specimens using powder as received. Approximately 35 mg of the sample was gently packed into a cavity cut into polished, zero-background (510) silicon wafer. The sample was rotated in its own plane during analysis. The details of the data collection are: • Angular range: 2 to 42°2θ • Step size: 0.05°2θ • Collection time: 4 s·step^1.
Alternatively, X-Ray Powder Diffraction patterns were collected on a Bruker AXS C2 GADDS diffractometer using Cu Kα radiation (40 kV, 40 mA), automated XYZ stage, laser video microscope for auto-sample positioning and a HiStar 2-dimensional area detector. X-ray optics consists of a single Gabel multilayer mirror coupled with a pinhole collimator of 0.3 mm. The beam divergence, i.e. the effective size of the X-ray beam on the sample, was approximately 4 mm. A θ-θ continuous scan mode was employed with a sample-detector distance of 20 cm which gives an effective 2θ range of 3.2°-29.7°. Typically the sample would be exposed to the X-ray beam for 120 seconds.
Samples run under ambient conditions were prepared as flat plate specimens using powder as received without grinding. Approximately 1-2 mg of the sample was lightly pressed on a glass slide to obtain a flat surface.

C1=C/COCc2cc(ccc2OCCN2CCCC2)Nc2nccc(n2)-c2cccc(c2)COC/1 [Batch Citrate 1, 11-(2-pyrrolidin-1-yl-ethoxy)-14,19-dioxa-5,7,26-triaza-tetracyclo[19.3.1.1(2,6).1(8,12)]heptacosa-1(25),2(26),3,5,8,10,12(27),16,21,23-decaene]
decomposition / degradation temperature in TGA [1]: 180 °C | TGA weight loss before degradation / melt with decomposition ([1]; result in words): no weight loss | change of X-ray diffraction pattern with temperature [2]: no change irrespective of the temperature | solid form / XRPD pattern post GVS compared with before ([3]; XRPD after GVS experiment): no change | GVS water taken up ([3]; between 0 and 90% RH): less than 0.8% | hygroscopicity ([3]; result in words): low hygroscopicity | Solid Form Comment [4]: Group A
